The results in this text go back to ChEMBL document CHEMBL1208720, “N-Benzylsalicylthioamides as novel compounds with promising antimycotic activity” (2010).

Structures are written as SMILES. Values after ≈ are worked out from the molar mass of the structure shown.

Common to all, as to assay type: functional
The test system of experiment [1] is Trichophyton mentagrophytes. Put plainly: Antifungal activity against Trichophyton mentagrophytes 445 after 120 hrs by broth microdilution assay. To be noted: Trichophyton mentagrophytes, 445, 120 h. (Broth dilution looks for growth in wells or tubes with falling amounts of substance.)
For experiment [2], the system named is Lichtheimia corymbifera. Put plainly: Antifungal activity against Absidia corymbifera 272 after 24 hrs by broth microdilution assay. As to conditions: Lichtheimia corymbifera, 272, 24 h.
The test system of experiment [3] is Pichia kudriavzevii. Put plainly: Antifungal activity against Candida krusei E28 after 48 hrs by broth microdilution assay. As to conditions: Pichia kudriavzevii, E28, 48 h.
Experiment [4] deals with Candida tropicalis. The experiment can be described thus: Antifungal activity against Candida tropicalis 159 after 24 hrs by broth microdilution assay. As to conditions: Candida tropicalis, 159, 24 h.
Experiment [5] deals with Candida albicans. The experiment can be described thus: Antifungal activity against Candida albicans ATCC 44859 after 24 hrs by broth microdilution assay. To be noted: Candida albicans, ATCC 44859, 24 h.
For experiment [6], the system named is Nakaseomyces glabratus. Put plainly: Antifungal activity against Candida glabrata 20/I after 24 hrs by broth microdilution assay. As to conditions: Nakaseomyces glabratus, 20/I, 24 h.
The test system of experiment [7] is Aspergillus fumigatus. The experiment can be described thus: Antifungal activity against Aspergillus fumigatus 231 after 24 hrs by broth microdilution assay. To be noted: Aspergillus fumigatus, 231, 24 h.
The test system of experiment [8] is Aspergillus fumigatus. The experiment can be described thus: Antifungal activity against Aspergillus fumigatus 231 after 48 hrs by broth microdilution assay. To be noted: Aspergillus fumigatus, 231, 48 h.
The test system of experiment [9] is Trichosporon asahii. Put plainly: Antifungal activity against Trichosporon asahii 1188 after 24 hrs by broth microdilution assay. As to conditions: Trichosporon asahii, 1188, 24 h.
The test system of experiment [10] is Candida albicans. The experiment can be described thus: Antifungal activity against Candida albicans ATCC 44859 after 48 hrs by broth microdilution assay. To be noted: Candida albicans, ATCC 44859, 48 h.
The test system of experiment [11] is Pichia kudriavzevii. The experiment can be described thus: Antifungal activity against Candida krusei E28 after 24 hrs by broth microdilution assay. As to conditions: Pichia kudriavzevii, E28, 24 h.
Experiment [12] concerns Nakaseomyces glabratus. The experiment can be described thus: Antifungal activity against Candida glabrata 20/I after 48 hrs by broth microdilution assay. As to conditions: Nakaseomyces glabratus, 20/I, 48 h.
In experiment [13] the test system is Lichtheimia corymbifera. The experiment can be described thus: Antifungal activity against Absidia corymbifera 272 after 48 hrs by broth microdilution assay. As to conditions: Lichtheimia corymbifera, 272, 48 h.
The test system of experiment [14] is Trichosporon asahii. The experiment can be described thus: Antifungal activity against Trichosporon asahii 1188 after 48 hrs by broth microdilution assay. As to conditions: Trichosporon asahii, 1188, 48 h.
Experiment [15] deals with Trichophyton mentagrophytes. The experiment can be described thus: Antifungal activity against Trichophyton mentagrophytes 445 after 72 hrs by broth microdilution assay. As to conditions: Trichophyton mentagrophytes, 445, 72 h.
The test system of experiment [16] is Candida tropicalis. Put plainly: Antifungal activity against Candida tropicalis 159 after 48 hrs by broth microdilution assay. As to conditions: Candida tropicalis, 159, 48 h.

Turning to `CC(C)(C)c1ccc(CNC(=S)c2ccccc2O)cc1`, the MIC – broadly, the smallest concentration in the dilution series that meets the test's criterion for growth inhibition – in [1] is 15.6 µM (≈ 4.68 µg/mL); in the experiment on Lichtheimia corymbifera [2], 15.6 µM (≈ 4.68 µg/mL); with Pichia kudriavzevii [3], > 500 µM; with Candida tropicalis [4] it was > 500 µM; with Candida albicans [5], > 500 µM; in the experiment on Nakaseomyces glabratus [6], > 500 µM. The MIC with Aspergillus fumigatus [7] was 250 µM (≈ 74.9 µg/mL); with Aspergillus fumigatus [8] it was > 500 µM; with Trichosporon asahii [9], 250 µM (≈ 74.9 µg/mL); in the experiment with Candida albicans [10], > 500 µM; in the experiment on Pichia kudriavzevii [11] it was > 500 µM; against Nakaseomyces glabratus [12] it was > 500 µM. Besides, the MIC with Lichtheimia corymbifera [13] was 62.5 µM (≈ 18.7 µg/mL); in the experiment on Trichosporon asahii [14], 250 µM (≈ 74.9 µg/mL); in [15], 15.6 µM (≈ 4.68 µg/mL); in the experiment on Candida tropicalis [16], > 500 µM.

Turning to `Oc1ccc(Cl)cc1C(=S)NCc1ccc(F)cc1`, the MIC in [1] worked out at 15.6 µM (≈ 4.62 µg/mL); against Lichtheimia corymbifera [2] it was 15.6 µM (≈ 4.62 µg/mL); in the experiment on Pichia kudriavzevii [3], 15.6 µM (≈ 4.62 µg/mL); with Candida tropicalis [4] it was 62.5 µM (≈ 18.5 µg/mL); against Candida albicans [5], 31.2 µM (≈ 9.24 µg/mL); in the experiment on Nakaseomyces glabratus [6], 62.5 µM (≈ 18.5 µg/mL). The MIC with Aspergillus fumigatus [7] was 31.2 µM (≈ 9.24 µg/mL); against Aspergillus fumigatus [8] it was 15.6 µM (≈ 4.62 µg/mL); with Trichosporon asahii [9] it was 7.81 µM (≈ 2.31 µg/mL); in the experiment on Candida albicans [10] it was 125 µM (≈ 37 µg/mL); against Pichia kudriavzevii [11] it was 7.81 µM (≈ 2.31 µg/mL); in the experiment with Nakaseomyces glabratus [12], 125 µM (≈ 37 µg/mL). The MIC in the experiment with Lichtheimia corymbifera [13] was 15.6 µM (≈ 4.62 µg/mL); with Trichosporon asahii [14], 15.6 µM (≈ 4.62 µg/mL); in experiment [15] it was 15.6 µM (≈ 4.62 µg/mL); in the experiment with Candida tropicalis [16], 125 µM (≈ 37 µg/mL).

Turning to `Cc1cccc(C(=S)NCc2ccc(Cl)cc2)c1O`, the MIC in experiment [1] was 15.6 µM (≈ 4.56 µg/mL); in the experiment with Lichtheimia corymbifera [2], 31.2 µM (≈ 9.12 µg/mL); with Pichia kudriavzevii [3] it was > 500 µM; against Candida tropicalis [4] it was 125 µM (≈ 36.5 µg/mL); in the experiment with Candida albicans [5], 62.5 µM (≈ 18.2 µg/mL); in the experiment on Nakaseomyces glabratus [6], > 500 µM. The minimal inhibitory concentration (MIC) was 62.5 µM (≈ 18.2 µg/mL) with Aspergillus fumigatus [7]; 125 µM (≈ 36.5 µg/mL) against Aspergillus fumigatus [8]; 62.5 µM (≈ 18.2 µg/mL) against Trichosporon asahii [9]; 125 µM (≈ 36.5 µg/mL) in the experiment on Candida albicans [10]; > 500 µM with Pichia kudriavzevii [11]; > 500 µM against Nakaseomyces glabratus [12]. Besides, the MIC against Lichtheimia corymbifera [13] came to 31.2 µM (≈ 9.12 µg/mL); in the experiment on Trichosporon asahii [14] it was 62.5 µM (≈ 18.2 µg/mL); in experiment [15], 15.6 µM (≈ 4.56 µg/mL); in the experiment with Candida tropicalis [16], 250 µM (≈ 73 µg/mL).

Regarding `Cc1ccc(C(=S)NCc2ccccc2)c(O)c1`, the minimum inhibitory concentration (MIC) worked out at 31.2 µM (≈ 8.04 µg/mL) in experiment [1]; 7.81 µM (≈ 2.01 µg/mL) in the experiment on Lichtheimia corymbifera [2]; 125 µM (≈ 32.2 µg/mL) with Pichia kudriavzevii [3]; 125 µM (≈ 32.2 µg/mL) against Candida tropicalis [4]; 62.5 µM (≈ 16.1 µg/mL) with Candida albicans [5]; 125 µM (≈ 32.2 µg/mL) against Nakaseomyces glabratus [6]. In addition, the MIC against Aspergillus fumigatus [7] came to 62.5 µM (≈ 16.1 µg/mL); against Aspergillus fumigatus [8] it was 125 µM (≈ 32.2 µg/mL); with Trichosporon asahii [9] it was 62.5 µM (≈ 16.1 µg/mL); in the experiment with Candida albicans [10] it was 125 µM (≈ 32.2 µg/mL); against Pichia kudriavzevii [11], 62.5 µM (≈ 16.1 µg/mL); with Nakaseomyces glabratus [12], 250 µM (≈ 64.3 µg/mL). For the same compound, the MIC against Lichtheimia corymbifera [13] was 31.2 µM (≈ 8.04 µg/mL); against Trichosporon asahii [14] it was 62.5 µM (≈ 16.1 µg/mL); in [15], 31.2 µM (≈ 8.04 µg/mL); in the experiment on Candida tropicalis [16], 250 µM (≈ 64.3 µg/mL).

In the case of `COc1ccc(C(=S)NCc2cccc(Cl)c2)c(O)c1`, the MIC in experiment [1] came to 15.6 µM (≈ 4.81 µg/mL); with Lichtheimia corymbifera [2] it was 7.81 µM (≈ 2.4 µg/mL); with Pichia kudriavzevii [3] it was 125 µM (≈ 38.5 µg/mL); against Candida tropicalis [4], 125 µM (≈ 38.5 µg/mL); against Candida albicans [5], 125 µM (≈ 38.5 µg/mL); in the experiment on Nakaseomyces glabratus [6], 250 µM (≈ 77 µg/mL). The MIC stood at 62.5 µM (≈ 19.2 µg/mL) in the experiment on Aspergillus fumigatus [7]; 125 µM (≈ 38.5 µg/mL) against Aspergillus fumigatus [8]; 31.2 µM (≈ 9.62 µg/mL) in the experiment on Trichosporon asahii [9]; 250 µM (≈ 77 µg/mL) against Candida albicans [10]; 125 µM (≈ 38.5 µg/mL) against Pichia kudriavzevii [11]; 500 µM (≈ 154 µg/mL) in the experiment with Nakaseomyces glabratus [12]. The MIC against Lichtheimia corymbifera [13] stood at 7.81 µM (≈ 2.4 µg/mL); in the experiment with Trichosporon asahii [14], 62.5 µM (≈ 19.2 µg/mL); in experiment [15] it was 15.6 µM (≈ 4.81 µg/mL); against Candida tropicalis [16] it was 250 µM (≈ 77 µg/mL).

On to `Oc1cc(Cl)ccc1C(=S)NCc1ccc(Br)cc1`, for which the MIC in [1] was 1.95 µM (≈ 0.696 µg/mL); against Lichtheimia corymbifera [2], 0.98 µM (≈ 0.35 µg/mL); with Pichia kudriavzevii [3], 15.6 µM (≈ 5.57 µg/mL); in the experiment with Candida tropicalis [4], 31.2 µM (≈ 11.1 µg/mL); against Candida albicans [5] it was 15.6 µM (≈ 5.57 µg/mL); with Nakaseomyces glabratus [6], 31.2 µM (≈ 11.1 µg/mL). Further, the MIC against Aspergillus fumigatus [7] came to 7.81 µM (≈ 2.79 µg/mL); against Aspergillus fumigatus [8], 7.81 µM (≈ 2.79 µg/mL); against Trichosporon asahii [9], 7.81 µM (≈ 2.79 µg/mL); in the experiment on Candida albicans [10], 31.2 µM (≈ 11.1 µg/mL); in the experiment on Pichia kudriavzevii [11], 3.9 µM (≈ 1.39 µg/mL); in the experiment on Nakaseomyces glabratus [12], 31.2 µM (≈ 11.1 µg/mL). The MIC in the experiment with Lichtheimia corymbifera [13] was 1.95 µM (≈ 0.696 µg/mL); against Trichosporon asahii [14], 7.81 µM (≈ 2.79 µg/mL); in experiment [15], 0.98 µM (≈ 0.35 µg/mL); in the experiment on Candida tropicalis [16] it was 31.2 µM (≈ 11.1 µg/mL).

`Cc1ccc(CNC(=S)c2ccc(C)cc2O)cc1`: the MIC is 15.6 µM (≈ 4.24 µg/mL) in [1]; 7.81 µM (≈ 2.12 µg/mL) against Lichtheimia corymbifera [2]; 125 µM (≈ 33.9 µg/mL) against Pichia kudriavzevii [3]; 125 µM (≈ 33.9 µg/mL) against Candida tropicalis [4]; 125 µM (≈ 33.9 µg/mL) against Candida albicans [5]; 125 µM (≈ 33.9 µg/mL) against Nakaseomyces glabratus [6]. The MIC in the experiment on Aspergillus fumigatus [7] amounted to 125 µM (≈ 33.9 µg/mL); against Aspergillus fumigatus [8], 500 µM (≈ 136 µg/mL); against Trichosporon asahii [9], 31.2 µM (≈ 8.48 µg/mL); in the experiment on Candida albicans [10], 250 µM (≈ 67.8 µg/mL); against Pichia kudriavzevii [11] it was 62.5 µM (≈ 17 µg/mL); against Nakaseomyces glabratus [12] it was 500 µM (≈ 136 µg/mL). In addition, the MIC in the experiment with Lichtheimia corymbifera [13] amounted to 31.2 µM (≈ 8.48 µg/mL); against Trichosporon asahii [14], 62.5 µM (≈ 17 µg/mL); in experiment [15] it was 15.6 µM (≈ 4.24 µg/mL); with Candida tropicalis [16], 500 µM (≈ 136 µg/mL).
